# Test results published in patent publication US8636979B2, “TLR 4 and 9 receptors agonists for preventing septic complications of post-traumatic immunodepression in patients hospitalized for severe traumatic injuries” (Chu Nantes, priority 2009, dated 2014).
# Tested on: methicillin-sensitive Staphyloccocus aureus (MSSA) pneumonia after haemorrhagic shock
# Test: Mortality from MSSA pneumonia after haemorrhagic shock (post-haemorrhagic SI model)
# Type: in vivo
# Conditions: Balb/cJ mice; i.v. injection immediately after resuscitation from haemorrhagic shock; 7×10^6 CFU MSSA 24 h later; survival followed 7 days
# Description: An intra-venous injection of CpG-ODN 1668 (100 μl to […]) (HP-CpG group) or the same volume of isotonic saline solution (HP group) was given immediately after resuscitation from haemorrhagic shock. Twenty-four hours later the mice were inoculated with 7×10^6 CFU of MSSA. The survival rate of each group was measured twice a day for 7 days (168 hours). Each group comprised 8 animals. Data are given as a percentage and are representative of three independent experiments each having the same statistical significance (*p≦0.05). HP Group (black diamonds), HP-CpG group (blank squares).
# Male Balb/cJ mice (20-24 grams) were obtained from the Janvier breeding company (Laval, France). Mice were kept on a day/night cycle of 12 hours with free access to food and drink. […]
# A strain of methicillin-sensitive Staphyloccocus aureus or <<MSSA>> (ATCC strain 29213) was cultured 16 hours at 37° C. in a tryptic soy medium (Grosseron, Saint Herblain, France). […] The bacterial concentration was systematically controlled by quantitative culture. […]
# Mortality was assessed twice a day for 7 days. […] Capillary glycaemia was measured using a haemaglucotest (Boehringer Ingelheim France), Venous blood gasometry, reflecting shock intensity and quality of resuscitation, was measured on central venous blood taken from the right atrium.
substance,measurement,value
monophosphoryl lipid A [MPLA],mortality in post-haemorrhagic SI model with MSSA pneumonia,significantly lowered mortality
